{"source": "patent US10925925B2", "about": "“Therapy of atherosclerosis, primary biliary cirrhosis and NRLP3 inflammasome-associated disease by HTCP inhibitors” (MYR GmbH, priority 2017, dated 2021)", "origin": "cited, not measured here", "key": {"patients with PBC [1]": {"tested_on": "patients with PBC", "settings": "PBC patients treated with UDCA"}, "patients with PBC [2]": {"tested_on": "patients with PBC", "settings": "month 12, placebo arm 10%"}}, "note": "Where two headings read alike, the source gives them in different places.", "data": [{"smiles": "C[C@H](CCC(=O)O)[C@H]1CC[C@H]2[C@@H]3[C@@H](O)C[C@@H]4C[C@H](O)CC[C@]4(C)[C@H]3CC[C@]12C", "note": "[UDCA, ursodeoxicholic acid]", "values": [{"measurement": "patients who do not achieve adequate biochemical response", "setting": "patients with PBC [1]", "value": "about 40%"}]}, {"smiles": "CC[C@H]1[C@@H](O)[C@@H]2[C@H](CC[C@]3(C)[C@@H]([C@H](C)CCC(=O)O)CC[C@@H]23)[C@@]2(C)CC[C@@H](O)C[C@@H]12", "note": "[OCA, obeticholic acide]", "values": [{"measurement": "patients achieving the primary endpoint (predominantly reduction in ALP)", "setting": "patients with PBC [2]; OCA 10 mg arm", "value": 47, "unit": "%"}, {"measurement": "patients achieving the primary endpoint (predominantly reduction in ALP)", "setting": "patients with PBC [2]; OCA titration arm", "value": 46, "unit": "%"}]}]}
